Entries after “also recorded” stand apart in the source; their conditions may differ.
Assays:
Assay type in all cases: in vivo
[1] = test system: Amaranthus powelli (Powell's Amaranth), Group 2,5 resistant; assay: Post-emergent treatment of potted weeds with herbicide composition, 7 day growth (FIG. 1); conditions: 1% Juglone, weeds about 0-2 weeks post emergent (about 2-5 cm), 7 days after treatment
Procedure: (§1) Referring now to the figures, pictures of various weeds are shown herein after being treated with an herbicide composition described herein. In all of the pictures provided herein, weeds that were about 0-2 weeks post emergent (e.g. about 2-5 cm in height) were treated with an herbicide composition having a 1% Juglone concentration. In most cases, plant damage was observed within two hours of treatment of the weeds with the herbicide composition.
Specifically, FIG. 1 is a picture of three pots showing 7 day growth of Amaranthus powelli (Powell's Amaranth), Group 2,5 resistant, when left untreated, treated with 1% Juglone, and treated with a control (i.e. solvent/surfactant, no active ingredient), respectively.

[2] = test system: Amaranthus hybridus L. (smooth pigweed), Group 2,5 Resistant; assay: Post-emergent treatment of potted weeds with herbicide composition, 7 day growth (FIG. 7); conditions: 1% Juglone; weeds about 0-2 weeks post emergent (about 2-5 cm); 7 days after treatment
Procedure: as §1
FIG. 7 is a picture of three pots showing 7 day growth of Amaranthus hybridus L. (smooth pigweed), Group 2,5 Resistant, when left untreated, treated with 1% Juglone, and treated with a control (i.e. solvent/surfactant, no active ingredient), respectively.

[3] = test system: Solanum ptycanthum (eastern black nightshade), Group 2 Resistant; assay: Post-emergent treatment of potted weeds with herbicide composition, 7 day growth (FIG. 6); conditions: 1% Juglone; weeds about 0-2 weeks post emergent (about 2-5 cm); 7 days after treatment
Procedure: as §1
FIG. 6 is a picture of two pots showing 7 day growth of Solanum ptycanthum (eastern black nightshade), Group 2 Resistant, when left untreated and treated with […] Juglone, respectively.

[4] = test system: weeds; assay: Onset of plant damage after treatment of weeds with herbicide composition; conditions: 1% Juglone concentration; weeds about 0-2 weeks post emergent; in most cases
Procedure: as §1

[5] = test system: Amaranthus rudis JD Sauer (Waterhemp), non-resistant; assay: Post-emergent treatment of potted weeds with herbicide composition, 7 day growth (FIG. 3); conditions: 1% Juglone; weeds about 0-2 weeks post emergent (about 2-5 cm); 7 days after treatment
Procedure: as §1
FIG. 3 is a picture of three pots showing 7 day growth of Amaranthus rudis JD Sauer (Waterhemp), non-resistant, when left untreated, treated with 1% Juglone, and treated with a control (i.e. solvent/surfactant, no active ingredient), respectively.

[6] = test system: Amaranthus retroflexus L. (pigweed), Group 2,5 Resistant; assay: Post-emergent treatment of potted weeds with herbicide composition, 7 day growth (FIG. 5); conditions: 1% Juglone; weeds about 0-2 weeks post emergent (about 2-5 cm); 7 days after treatment
Procedure: as §1
FIG. 5 is a picture of two pots showing 7 day growth of Amaranthus retroflexus L. (pigweed), Group 2,5 Resistant, when left untreated and treated with 1% Juglone, respectively.

[7] = test system: Chenopodium album L. (lamb's quarters), Group 2,5 Resistant; assay: Post-emergent treatment of potted weeds with herbicide composition, 7 day growth (FIG. 4); conditions: 1% Juglone; weeds about 0-2 weeks post emergent (about 2-5 cm); 7 days after treatment
Procedure: as §1
FIG. 4 is a picture of three pots showing 7 day growth of Chenopodium album L. (lamb's quarters), Group 2,5 Resistant, when left untreated, treated with 1% Juglone, and treated with a control (i.e. solvent/surfactant, no active ingredient), respectively.

[8] = test system: Amaranthus rudis JD Sauer (Waterhemp), Group 2,4,5,14,9,27 Resistant; assay: Post-emergent treatment of potted weeds with herbicide composition, 7 day growth (FIG. 2); conditions: 1% Juglone; weeds about 0-2 weeks post emergent (about 2-5 cm); 7 days after treatment
Procedure: as §1
FIG. 2 is a picture of three pots showing 7 day growth of Amaranthus rudis JD Sauer (Waterhemp), Group 2,4,5,14,9,27 Resistant, when left untreated, treated with 1% Juglone, and treated with a control (i.e. solvent/surfactant, no active ingredient), respectively.

For O=C1C=CC(=O)c2c(O)cccc21 [Juglone, 5-hydroxy-1,4-naphthalenedione], the “control of growth of Amaranthus powelli” value [1] was “effectively controlled the growth”, the “control of growth of Amaranthus hybridus L. (smooth pigweed), Group 2,5 Resistant” value [2] was “effectively controlled the growth” and the “control of growth of Solanum ptycanthum (eastern black nightshade), Group 2 Resistant” value [3] was “effectively controlled the growth”. For the same compound, the “time to observed plant damage after treatment” value [4] was “two”, the “control of growth of Amaranthus rudis JD Sauer (Waterhemp), non-resistant” value [5] was “did not effectively control the growth” and the “control of growth of Amaranthus retroflexus L. (pigweed), Group 2,5 Resistant” value [6] was “effectively controlled the growth”. The “control of growth of Chenopodium album L. (lamb's quarters), Group 2,5 Resistant” value [7] was “effectively controlled the growth” and the “control of growth of Amaranthus rudis JD Sauer (Waterhemp), Group 2,4,5,14,9,27 Resistant” value [8] was “effectively controlled the growth; also recorded: did control the growth”.

Reference: patent US20210029994A1, “HERBICIDE COMPOSITIONS AND METHODS OF CONTROLLING GROWTH OF PLANTS” (priority 2019, published 2021)
